The test system of this experiment is human monocytic cell line U937. Description: Human U937 cellular necroptosis assay. In kind it is cell-based. Conditions: U-937; U937 cells stimulated with 25 ng/mL human TNFalpha and 25 μM z-VAD-FMK; 22 hr; viability by Cell Titer-Glo 2.0; read-out: hU937 IC50. Here is the method: Human U937 Cellular Necroptosis Assay
The human monocytic cell line U937 (CRL-1593.2) may be purchased from ATCC. The cells are routinely maintained in RPMI-1640 Medium (Gibco, Catalog #11875-093) supplemented with 10% heat inactivated fetal bovine serum (Gibco, Catalog #16140-071), 100 units/mL penicillin and 100 μg/mL streptomycin (Gibco, Catalog #15140-122), in a humidified incubator (37° C., 5% CO2). For the assay, cells are resuspended in RPMI-1640 phenol red free Media (Gibco, Catalog #11835-030) supplemented with 10% fetal bovine serum (Sigma, Catalog #F2442), 100 units/mL penicillin and 100 ug/mL streptomycin. Cells are stimulated with 25 ng/mL human TNFalpha (Cell Sciences, Catalog #CSI15659B) and 25 μM z-VAD-FMK (R&D Systems, Catalog #FMK001) followed by seeding 5000 cells per well in a volume of 40 μL to a white, CulturPlate-384 (Perkin Elmer, Catalog #6007680). Stock solutions of the test compounds are prepared in 100% DMSO (Sigma, Catalog #D2650) and serially diluted 1:3 using 100% DMSO. Compounds are additionally diluted 1:40 in assay medium, and 10 μL/well was transferred to the plate. Following the compound addition, the plate is incubated at 37° C. and 5% CO2 for 22 hr. After 22 hr, viability is assessed with the addition of 20 μL of Cell Titer-Glo 2.0 (Promega, Catalog #G9243). The tissue culture plate is shaken on an orbital shaker at 300 RPM for 15 minutes at room temperature in the dark. Luminescence is measured using a PerkinElmer Envision™ plate reader. IC50 values are calculated using a four-parameter logistic curve fit using Genedata Screener software. Compounds disclosed herein are expected to have activity in this assay.
(In general: In ATP-based viability assays light output follows the ATP content of the culture.)
The term IC50 denotes the concentration that inhibits the measured activity by half. As for `CN1C(=O)[C@@H](NC(=O)c2ncc(Cl)c(-c3cncc(F)c3)n2)COc2cccnc21` [Example 56, (S)-5-chloro-4-(5-fluoropyridin-3-yl)-N-(5-methyl-4-oxo-2,3,4,5-tetrahydropyrido[3,2-b]-[1,4]oxazepin-3-yl)pyrimidine-2-carboxamide], the IC50 was 0.18 µM.
`Cc1cnc(C(=O)N[C@H]2COc3cccnc3N(C)C2=O)nc1C12CCC(CC1)CC2` [Example 57, (S)-4-(bicyclo[2.2.2]octan-1-yl)-5-methyl-N-(5-methyl-4-oxo-2,3,4,5-tetrahydro-pyrido[3,2-b][1,4]oxazepin-3-yl)pyrimidine-2-carboxamide]: the IC50 is 0.0909 µM.
For `Cc1cnc(C(=O)N[C@H]2COc3cccnc3N(C)C2=O)nc1C1CCOCC1` [Example 58, (S)-5-methyl-N-(5-methyl-4-oxo-2,3,4,5-tetrahydro-pyrido[3,2-b][1,4]oxazepin-3-yl)-4-(tetrahydro-2H-pyran-4-yl)pyrimidine-2-carboxamide], the IC50 amounted to 0.229 µM.
For the compound `Cc1cnc(C(=O)N[C@H]2COc3cccnc3N(C)C2=O)nc1-c1cccc(F)c1F` [Example 59, (S)-4-(2,3-difluorophenyl)-5-methyl-N-(5-methyl-4-oxo-2,3,4,5-tetrahydropyrido[3,2-b]-[1,4]oxazepin-3-yl)pyrimidine-2-carboxamide], the IC50 amounted to 0.0139 µM.
On to `Cc1cnc(C(=O)N[C@H]2COc3cccnc3N(C)C2=O)nc1-c1ccc(F)cc1F` [Example 60, (S)-4-(2,4-difluorophenyl)-5-methyl-N-(5-methyl-4-oxo-2,3,4,5-tetrahydropyrido[3,2-b]-[1,4]oxazepin-3-yl)pyrimidine-2-carboxamide], for which the concentration for half-maximal inhibition (IC50) turned out to be 0.0162 µM.
For `Cc1ccc(-c2nc(C(=O)N[C@H]3COc4cccnc4N(C)C3=O)ncc2C)c(F)c1` [Example 61, (S)-4-(2-fluoro-4-methylphenyl)-5-methyl-N-(5-methyl-4-oxo-2,3,4,5-tetrahydropyrido[3,2-b]-[1,4]oxazepin-3-yl)pyrimidine-2-carboxamide], the IC50 was found to be 0.0161 µM.
On to `Cc1ccc(-c2nc(C(=O)N[C@H]3COc4cccnc4N(C)C3=O)ncc2C)cc1F` [Example 62, (S)-4-(3-fluoro-4-methylphenyl)-5-methyl-N-(5-methyl-4-oxo-2,3,4,5-tetrahydropyrido[3,2-b]-[1,4]oxazepin-3-yl)pyrimidine-2-carboxamide], for which the IC50 was determined as 0.0104 µM.
With `Cc1cc(F)ccc1-c1ccnc(C(=O)N[C@H]2COc3cc(F)cnc3N(C)C2=O)n1` [Example 63, (S)-4-(4-fluoro-2-methylphenyl)-N-(8-fluoro-5-methyl-4-oxo-2,3,4,5-tetrahydropyrido[3,2-b]-[1,4]oxazepin-3-yl)pyrimidine-2-carboxamide], the IC50 came to 0.117 µM.
In the case of `Cc1cc(F)cc(F)c1-c1ccnc(C(=O)N[C@H]2COc3cc(F)cnc3N(C)C2=O)n1` [Example 64, (S)-4-(2,4-difluoro-6-methylphenyl)-N-(8-fluoro-5-methyl-4-oxo-2,3,4,5-tetrahydropyrido[3,2-b]-[1,4]oxazepin-3-yl)pyrimidine-2-carboxamide] it was 0.189 µM; in that of `Cc1cccc(-c2ccnc(C(=O)N[C@H]3COc4cc(F)cnc4N(C)C3=O)n2)c1` [Example 65, (S)-N-(8-fluoro-5-methyl-4-oxo-2,3,4,5-tetrahydro-pyrido[3,2-b][1,4]oxazepin-3-yl)-4-(m-tolyl)pyrimidine-2-carboxamide], 0.177 µM.
As to `CN1C(=O)[C@@H](NC(=O)c2ncc(F)c(-c3ccc(F)cc3)n2)COc2cc(F)cnc21` [Example 66, (S)-5-fluoro-N-(8-fluoro-5-methyl-4-oxo-2,3,4,5-tetrahydropyrido[3,2-b]-[1,4]oxazepin-3-yl)-4-(4-fluorophenyl)pyrimidine-2-carboxamide], the IC50 was determined as 0.106 µM.
In the case of `Cc1cc(F)ccc1-c1nc(C(=O)N[C@H]2COc3cc(F)cnc3N(C)C2=O)ncc1F` [Example 67, (S)-5-fluoro-4-(4-fluoro-2-methylphenyl)-N-(8-fluoro-5-methyl-4-oxo-2,3,4,5-tetrahydropyrido[3,2-b]-[1,4]oxazepin-3-yl)pyrimidine-2-carboxamide] it was 0.0247 µM; in that of `CN1C(=O)[C@@H](NC(=O)c2ncc(Cl)c(-c3ccccc3)n2)COc2cc(F)cnc21` [Example 69, (S)-5-chloro-N-(8-fluoro-5-methyl-4-oxo-2,3,4,5-tetrahydropyrido[3,2-b]-[1,4]oxazepin-3-yl)-4-phenylpyrimidine-2-carboxamide], 0.00741 µM.
With `CN1C(=O)[C@@H](NC(=O)c2ncc(Cl)c(-c3cccc(F)c3)n2)COc2cc(F)cnc21` [Example 70, (S)-5-chloro-N-(8-fluoro-5-methyl-4-oxo-2,3,4,5-tetrahydropyrido[3,2-b]-[1,4]oxazepin-3-yl)-4-(3-fluorophenyl)pyrimidine-2-carboxamide], the IC50 was determined as 0.00994 µM.
The figure for `CN1C(=O)[C@@H](NC(=O)c2ncc(Cl)c(-c3ccc(F)cc3)n2)COc2cc(F)cnc21` [Example 71, (S)-5-chloro-N-(8-fluoro-5-methyl-4-oxo-2,3,4,5-tetrahydropyrido[3,2-b]-[1,4]oxazepin-3-yl)-4-(4-fluorophenyl)pyrimidine-2-carboxamide] is 0.00883 µM; for `CN1C(=O)[C@@H](NC(=O)c2ncc(Cl)c(-c3cccc(F)c3F)n2)COc2cc(F)cnc21` [Example 72, (S)-5-chloro-4-(2,3-difluorophenyl)-N-(8-fluoro-5-methyl-4-oxo-2,3,4,5-tetrahydropyrido[3,2-b]-[1,4]oxazepin-3-yl)pyrimidine-2-carboxamide] it is 0.0255 µM; for `CN1C(=O)[C@@H](NC(=O)c2ncc(Cl)c(-c3ccc(F)cc3F)n2)COc2cc(F)cnc21` [Example 73, (S)-5-chloro-4-(2,4-difluorophenyl)-N-(8-fluoro-5-methyl-4-oxo-2,3,4,5-tetrahydropyrido[3,2-b]-[1,4]oxazepin-3-yl)pyrimidine-2-carboxamide] it is 0.0114 µM.
As for `CN1C(=O)[C@@H](NC(=O)c2ncc(Cl)c(-c3cc(F)ccc3F)n2)COc2cc(F)cnc21` [Example 74, (S)-5-chloro-4-(2,5-difluorophenyl)-N-(8-fluoro-5-methyl-4-oxo-2,3,4,5-tetrahydropyrido[3,2-b]-[1,4]oxazepin-3-yl)pyrimidine-2-carboxamide], the IC50 worked out at 0.011 µM.
Take `CN1C(=O)[C@@H](NC(=O)c2ncc(Cl)c(-c3ccc(F)c(F)c3)n2)COc2cc(F)cnc21` [Example 75, (S)-5-chloro-4-(3,4-difluorophenyl)-N-(8-fluoro-5-methyl-4-oxo-2,3,4,5-tetrahydropyrido[3,2-b]-[1,4]oxazepin-3-yl)pyrimidine-2-carboxamide]: the IC50 amounted to 0.0119 µM.
As to `CN1C(=O)[C@@H](NC(=O)c2ncc(Cl)c(-c3cc(F)cc(F)c3)n2)COc2cc(F)cnc21` [Example 76, (S)-5-chloro-4-(3,5-difluorophenyl)-N-(8-fluoro-5-methyl-4-oxo-2,3,4,5-tetrahydropyrido [3,2-b]-[1,4]oxazepin-3-yl)pyrimidine-2-carboxamide], the IC50 is 0.0165 µM.
`Cc1ccc(-c2nc(C(=O)N[C@H]3COc4cc(F)cnc4N(C)C3=O)ncc2Cl)c(F)c1` [Example 77, (S)-5-chloro-4-(2-fluoro-4-methylphenyl)-N-(8-fluoro-5-methyl-4-oxo-2,3,4,5-tetrahydropyrido[3,2-b]-[1,4]oxazepin-3-yl)pyrimidine-2-carboxamide]: the half-maximal inhibitory concentration (IC50) was determined as 0.00914 µM.
Turning to `Cc1ccc(-c2nc(C(=O)N[C@H]3COc4cc(F)cnc4N(C)C3=O)ncc2Cl)cc1F` [Example 78, (S)-5-chloro-4-(3-fluoro-4-methylphenyl)-N-(8-fluoro-5-methyl-4-oxo-2,3,4,5-tetrahydropyrido[3,2-b]-[1,4]oxazepin-3-yl)pyrimidine-2-carboxamide], the IC50 was 0.0083 µM.
With `Cc1cc(-c2nc(C(=O)N[C@H]3COc4cc(F)cnc4N(C)C3=O)ncc2Cl)ccc1F` [Example 79, (S)-5-chloro-4-(4-fluoro-3-methylphenyl)-N-(8-fluoro-5-methyl-4-oxo-2,3,4,5-tetrahydropyrido[3,2-b]-[1,4]oxazepin-3-yl)pyrimidine-2-carboxamide], the IC50 amounted to 0.0189 µM.
Turning to `CN1C(=O)[C@@H](NC(=O)c2ncc(Cl)c(-c3ccccc3Cl)n2)COc2cc(F)cnc21` [Example 80, (S)-5-chloro-4-(2-chlorophenyl)-N-(8-fluoro-5-methyl-4-oxo-2,3,4,5-tetrahydropyrido[3,2-b]-[1,4]oxazepin-3-yl)pyrimidine-2-carboxamide], the IC50 was determined as 0.0152 µM.
Regarding `CN1C(=O)[C@@H](NC(=O)c2ncc(Cl)c(-c3cccc(Cl)c3)n2)COc2cc(F)cnc21` [Example 81, (S)-5-chloro-4-(3-chlorophenyl)-N-(8-fluoro-5-methyl-4-oxo-2,3,4,5-tetrahydropyrido[3,2-b]-[1,4]oxazepin-3-yl)pyrimidine-2-carboxamide], the IC50 was 0.0296 µM.

These data come from US12565490B2, “Inhibitors of Receptor Interacting Protein Kinase I for the treatment of disease” (Board of Regents, The University of Texas System, priority 2020, dated 2026).
